In patent US11578056B2, “Solid forms comprising (S)-2-(2,6-dioxopiperidin-3-yl)-4-((2-fluoro-4-((3-morpholinoazetidin-1-yl)methyl)benzyl)amino)isoindoline-1,3-dione and salts thereof, and compositions comprising and methods of using the same” (Celgene Corporation, priority 2019, dated 2023):

Tests used:
Assay in all cases: Hematological cell line viability/apoptosis flow cytometry assay
Format in all cases: cell-based
[1] = tested on: GDM-1 cell line; settings: GDM-1 (AML); 120 h
Description: (§1) Cell Proliferation and Viability Assay Using Hematological Cell Lines: The following exemplary anti-proliferative assay uses exemplary hematological cell lines in the following. The in vitro growth inhibitory activity of Compound 1 described herein was evaluated using a 384-well flow cytometry assay.
(§2) The cell lines were plated in 384-well flat bottom plates and assessed with increasing concentrations of compound ranging from 0.00015 to 10 μM or dimethyl sulfoxide (DMSO) control. The final concentration of DMSO was 0.1% (v/v). Following the addition of Compound 1 or DMSO and incubation for 120 hours, cell number and cell death were analyzed by flow cytometry (Attune®, Thermo Fisher) using Annexin V and the live-cell impermeant DNA dye, DRAQ7. Phosphatidylserine translocates from the inner layer to the outer layer of the cell membrane early in apoptosis and Annexin V binds to the exposed phosphatidylserine found on the surface of an apoptotic cell. The vital dye DRAQ7 is excluded by intact live cells and only stains cells that have died as a result of apoptosis or necrosis.
(§3) Flow cytometry data analysis was then performed using the Flow Jo_v10 software to determine the number of viable cells (Annexin V and DRAQ7 double negative staining cells) and percentage of apoptotic cells (Annexin V positive cells) for each condition. The live cell count for every concentration was normalized to the DMSO control (considered as 100%) to calculate the percentage of viable cells remaining after treatment and graphed using GraphPad Prism 7.03. The IC50 (50% inhibitory concentration) and Emax (maximum efficacy achieved) values were then calculated by performing nonlinear regression curve fitting using log(inhibitor) vs. normalized response—variable slope analysis on GraphPad Prism 7.03. Area under the curve (AUC) was calculated by performing area under curve analysis on GraphPad Prism 7.03. Similarly, for apoptosis analysis, the percentage of apoptosis combining both “early” (Annexin V positive and DRAQ7 negative) and “late” apoptosis (Annexin V and DRAQ7 positive) cell gates relative to DMSO was graphed using GraphPad Prism 7.03. The AUC, EC50 (concentration of compound that produces half-maximal apoptosis response) and Ymax (maximal percentage of apoptosis achieved) values from apoptosis curves were calculated by performing area under curve analysis and nonlinear regression curve fitting using log(agonist) vs. normalized response—Variable slope analysis on GraphPad Prism 7.03.
(§4) Dose-response proliferation curves for the panel of hematological cell lines and non-linear curve-fit regression were used to determine IC50, AUC, and Emax for % viable cells (Emax for viability varies between 100 at low doses and 0 at high doses, which corresponds to inhibition of all viable cells), and dose-response apoptosis curves were used to determine the EC50, AUC, and Ymax for % apoptosis (Ymax for apoptosis varies from 0 at low doses and 100 at higher doses which corresponds to death of all cells). Tumor cells were exposed to serial dilutions (0.00015 to 10 μM) of Compound 1 or dimethyl sulfoxide (DMSO) control for 5 days. Viability and apoptosis for all cell lines was determined by Annexin V/7-aminoactinomycin D (7-AAD) flow cytometry.

[2] = tested on: KARPAS-1106P cell line; settings: KARPAS-1106P (DLBCL PMBL); 120 h
Description: as §1, §2, §3, §4

[3] = tested on: Karpas-299 cell line; settings: Karpas-299 (TCL), 120 h
Description: as §1, §2, §3, §4

[4] = tested on: L-428 cell line; settings: L-428 (HL), 120 h
Description: as §1, §2, §3, §4

[5] = tested on: Mec2 cell line; settings: Mec2 (CLL), 120 h
Description: as §1, §2, §3, §4

[6] = tested on: OCI-LY7 cell line; settings: OCI-LY7 (DLBCL GCB); 120 h
Description: as §1, §2, §3, §4

[7] = tested on: RC-K8 cell line; settings: RC-K8 (DLBCL ABC); 120 h
Description: as §1, §2, §3, §4

[8] = tested on: SK-MM-1 cell line; settings: SK-MM-1 (MM, PCL), 120 h
Description: as §1, §2, §3, §4

[9] = tested on: SU-DHL-5 cell line; settings: SU-DHL-5 (DLBCL); 120 h
Description: as §1, §2, §3, §4

[10] = tested on: TMD8 cell line; settings: TMD8 (DLBCL ABC); 120 h
Description: as §1, §2, §3, §4

[11] = tested on: U-2932 cell line; settings: U-2932 (DLBCL ABC); 120 h
Description: as §1, §2, §3, §4

[12] = tested on: U-2940 cell line; settings: U-2940 (DLBCL PMBL); 120 h
Description: as §1, §2, §3, §4

[13] = tested on: WILL-2 cell line; settings: WILL-2 (DLBCL), 120 h
Description: as §1, §2, §3, §4

[14] = Homo sapiens, read-out: % Viable Cells IC50

SMILES: O=C1CC[C@H](N2C(=O)c3cccc(NCc4ccc(CN5CC(N6CCOCC6)C5)cc4F)c3C2=O)C(=O)N1 [Compound 1, (S)-2-(2,6-dioxopiperidin-3-yl)-4-((2-fluoro-4-((3-morpholinoazetidin-1-yl)methyl)benzyl)amino)isoindoline-1,3-dione]
- % Viable Cells AUC [1]: 1455
- % Viable Cells Emax [1]: 388.4%
- Apoptosis AUC [1]: 696.9
- Apoptosis Ymax [1]: 265%
- % Viable Cells AUC [2]: 22.22
- % Viable Cells Emax [2]: 0.1698%
- Apoptosis AUC [2]: 885.2
- Apoptosis Ymax [2]: 97.08%
- EC50 ([3]; Homo sapiens): 168000 nM
- IC50 [3, 14]: 12 nM
- % Viable Cells AUC [3]: 283.7
- % Viable Cells Emax [3]: 8.43%
- Apoptosis AUC [3]: 14.51
- Apoptosis Ymax [3]: 8.0%
- EC50 ([4]; Homo sapiens): 64500 nM
- IC50 [4, 14]: 252 nM
- % Viable Cells AUC [4]: 450.4
- % Viable Cells Emax [4]: 47.3%
- Apoptosis AUC [4]: 63.35
- Apoptosis Ymax [4]: 27.50%
- % Viable Cells AUC [5]: 312.5
- % Viable Cells Emax [5]: 25.55%
- Apoptosis AUC [5]: 339.8
- Apoptosis Ymax [5]: 35.28%
- EC50 [5]: 13.3 nM
- IC50 ([5]; read-out: % Viable Cells IC50): 75.5 nM
- % Viable Cells AUC [6]: 48.18
- % Viable Cells Emax [6]: 4.191%
- Apoptosis AUC [6]: 682.7
- Apoptosis Ymax [6]: 71.18%
- % Viable Cells AUC [7]: 115.7
- % Viable Cells Emax [7]: 10.06%
- Apoptosis AUC [7]: 349.2
- Apoptosis Ymax [7]: 26.31%
- % Viable Cells AUC [8]: 202.2
- % Viable Cells Emax [8]: 3%
- Apoptosis AUC [8]: 90.99
- Apoptosis Ymax [8]: 44.5%
- EC50 [8]: 86400 nM
- IC50 ([8]; read-out: % Viable Cells IC50): 0.8 nM
- % Viable Cells AUC [9]: 1.873
- % Viable Cells Emax [9]: 0.1398%
- Apoptosis AUC [9]: 934.1
- Apoptosis Ymax [9]: 95.23%
- % Viable Cells AUC [10]: 4.187
- % Viable Cells Emax [10]: 0.245%
- Apoptosis AUC [10]: 963.3
- Apoptosis Ymax [10]: 97.2%
- % Viable Cells AUC [11]: 163.7
- % Viable Cells Emax [11]: 12.8%
- Apoptosis AUC [11]: 212.8
- Apoptosis Ymax [11]: 25.81%
- % Viable Cells AUC [12]: 70.43
- % Viable Cells Emax [12]: 5.192%
- Apoptosis AUC [12]: 792.5
- Apoptosis Ymax [12]: 82.19%
- % Viable Cells AUC [13]: 17.1
- % Viable Cells Emax [13]: 0.03115%
- Apoptosis AUC [13]: 916.9
- Apoptosis Ymax [13]: 99.43%
- EC50 [13]: 89.7 nM
- IC50 ([13]; read-out: % Viable Cells IC50): 2.36 nM
